US11382328B2, “Rapid drug discovery methods for pathogen inactivation” (priority 2019, dated 2022)

Tested on: E. coli strain W3110
Test: Synergy assays: Biolog chemical sensitivity panels with Group IB metal, coefficient of drug interaction (CDI) from relative growth
Format: cell-based
Conditions: for CDI (coefficient of drug interaction), copper mixed with biocide: Copper (mM) section; for CDI (coefficient of drug interaction), gold + biocide: Gold (μM)
[1] = 1st of 3 copper concentrations (value not shown), 3rd of four biocide concentrations
[2] = 1st of 3 copper concentrations (value not shown), 4th of four biocide concentrations
[3] = 2nd of 3 copper concentrations (value not shown), 3rd of four biocide concentrations
[4] = 2nd of 3 copper concentrations (value not shown), 4th of four biocide concentrations
[5] = 3rd of 3 copper concentrations (value not shown), 3rd of four biocide concentrations
[6] = 3rd of 3 copper concentrations (value not shown), 4th of four biocide concentrations
[7] = Gold section of Table 5, first of three gold concentrations (μM, value not given), biocide concentration 1 of 4
[8] = Gold section of Table 5, first of three gold concentrations (μM, value not given), biocide concentration 2 of 4
[9] = Gold section of Table 5, first of three gold concentrations (μM, value not given), biocide concentration 3 of 4
[10] = Gold section of Table 5, first of three gold concentrations (μM, value not given), biocide concentration 4 of 4
[11] = Gold section of Table 5, second of three gold concentrations (μM, value not given), biocide concentration 1 of 4
[12] = Gold section of Table 5, second of three gold concentrations (μM, value not given), biocide concentration 2 of 4
[13] = Gold section of Table 5, second of three gold concentrations (μM, value not given), biocide concentration 3 of 4
[14] = Gold section of Table 5, second of three gold concentrations (μM, value not given), biocide concentration 4 of 4
[15] = Gold section of Table 5, third of three gold concentrations (μM, value not given), biocide concentration 1 of 4
[16] = Gold section of Table 5, third of three gold concentrations (μM, value not given), biocide concentration 2 of 4
[17] = Gold section of Table 5, third of three gold concentrations (μM, value not given), biocide concentration 3 of 4
[18] = Gold section of Table 5, third of three gold concentrations (μM, value not given), biocide concentration 4 of 4
[19] = Silver 0.5 μM, biocide concentration 1 of 4
[20] = Silver 0.5 μM, biocide concentration 2 of 4
[21] = Silver 0.5 μM, biocide concentration 3 of 4
[22] = Silver 0.5 μM, biocide concentration 4 of 4
[23] = Silver 1.0 μM, biocide concentration 1 of 4
[24] = Silver 1.0 μM, biocide concentration 2 of 4
[25] = Silver 1.0 μM, biocide concentration 3 of 4
[26] = Silver 1.0 μM, biocide concentration 4 of 4
[27] = Silver 5.0 μM, biocide concentration 1 of 4
[28] = Silver 5.0 μM, biocide concentration 2 of 4
[29] = Silver 5.0 μM, biocide concentration 3 of 4
[30] = Silver 5.0 μM, biocide concentration 4 of 4
[31] = Copper (mM), 1st of 3 copper concentrations (head line not shown), biocide concentration 1 of 4, E. coli
[32] = Copper (mM), 1st of 3 copper concentrations (head line not shown), biocide concentration 2 of 4, E. coli
[33] = Copper (mM), 1st of 3 copper concentrations (head line not shown), biocide concentration 3 of 4, E. coli
[34] = Copper (mM), 1st of 3 copper concentrations (head line not shown), biocide concentration 4 of 4, E. coli
[35] = Copper (mM), 2nd of 3 copper concentrations (head line not shown), biocide concentration 1 of 4, E. coli
[36] = Copper (mM), 2nd of 3 copper concentrations (head line not shown), biocide concentration 2 of 4, E. coli
[37] = Copper (mM), 2nd of 3 copper concentrations (head line not shown), biocide concentration 3 of 4, E. coli
[38] = Copper (mM), 2nd of 3 copper concentrations (head line not shown), biocide concentration 4 of 4, E. coli
[39] = Copper (mM), 3rd of 3 copper concentrations (head line not shown), biocide concentration 1 of 4, E. coli
[40] = Copper (mM), 3rd of 3 copper concentrations (head line not shown), biocide concentration 2 of 4, E. coli
[41] = Copper (mM), 3rd of 3 copper concentrations (head line not shown), biocide concentration 3 of 4, E. coli
[42] = Copper (mM), 3rd of 3 copper concentrations (head line not shown), biocide concentration 4 of 4, E. coli

CN[C@@H]1[C@@H](O)[C@@H](O[C@@H]2[C@@H](O)[C@H](O[C@H]3O[C@H]([C@@H](C)O)[C@@H](O)[C@H](O)[C@H]3N)[C@@H](N)C[C@H]2N)OC[C@]1(C)O [geneticin (G418)]
CDI (coefficient of drug interaction), copper mixed with biocide (1st of 3 copper concentrations (value not shown), 1st of four biocide concentrations): 0.97
CDI (coefficient of drug interaction), copper mixed with biocide (1st of 3 copper concentrations (value not shown), 2nd of four biocide concentrations): 0.87
CDI (coefficient of drug interaction), copper mixed with biocide [1]: 0.86
CDI (coefficient of drug interaction), copper mixed with biocide [2]: 0.88
CDI (coefficient of drug interaction), copper mixed with biocide (2nd of 3 copper concentrations (value not shown), 1st of four biocide concentrations): 0.73
CDI (coefficient of drug interaction), copper mixed with biocide (2nd of 3 copper concentrations (value not shown), 2nd of four biocide concentrations): 0.71
CDI (coefficient of drug interaction), copper mixed with biocide [3]: 0.71
CDI (coefficient of drug interaction), copper mixed with biocide [4]: Tox
CDI (coefficient of drug interaction), copper mixed with biocide (3rd of 3 copper concentrations (value not shown), 1st of four biocide concentrations): 0.54
CDI (coefficient of drug interaction), copper mixed with biocide (3rd of 3 copper concentrations (value not shown), 2nd of four biocide concentrations): 0.50
CDI (coefficient of drug interaction), copper mixed with biocide [5]: 0.48
CDI (coefficient of drug interaction), copper mixed with biocide [6]: 0.44
CDI (coefficient of drug interaction) [7]: 1.08
CDI (coefficient of drug interaction) [8]: 1.00
CDI (coefficient of drug interaction) [9]: 1.01
CDI (coefficient of drug interaction) [10]: 0.95
CDI (coefficient of drug interaction) [11]: 1.05
CDI (coefficient of drug interaction) [12]: 1.03
CDI (coefficient of drug interaction) [13]: 1.00
CDI (coefficient of drug interaction) [14]: 1.02
CDI (coefficient of drug interaction) [15]: 1.05
CDI (coefficient of drug interaction) [16]: 1.04
CDI (coefficient of drug interaction) [17]: 1.05
CDI (coefficient of drug interaction) [18]: 1.11
CDI [19]: 1.04
CDI [20]: 0.96
CDI [21]: 0.76
CDI [22]: Tox
CDI [23]: 0.94
CDI [24]: 0.82
CDI [25]: 0.31
CDI [26]: Tox
CDI [27]: 0.48
CDI [28]: 0.49
CDI [29]: 0.23
CDI [30]: Tox

N.N.N.N.N.N.N.N.N.N.N.N.N.N.[Cl-].[Cl-].[Cl-].[Cl-].[Cl-].[Cl-].[O-2].[O-2].[Ru+3].[Ru+3].[Ru+4] [ruthenium red]
CDI (coefficient of drug interaction) [31]: 0.73
CDI (coefficient of drug interaction) [32]: 0.60
CDI (coefficient of drug interaction) [33]: 0.51
CDI (coefficient of drug interaction) [34]: 0.50
CDI (coefficient of drug interaction) [35]: 0.52
CDI (coefficient of drug interaction) [36]: 0.47
CDI (coefficient of drug interaction) [37]: 0.37
CDI (coefficient of drug interaction) [38]: 0.30
CDI (coefficient of drug interaction) [39]: 0.45
CDI (coefficient of drug interaction) [40]: 0.38
CDI (coefficient of drug interaction) [41]: 0.33
CDI (coefficient of drug interaction) [42]: 0.29
CDI (coefficient of drug interaction), gold + biocide (first of 3 gold concentrations, biocide concentration 1 of 4): 1.04
CDI (coefficient of drug interaction), gold + biocide (first of 3 gold concentrations, biocide concentration 2 of 4): 0.94
CDI (coefficient of drug interaction), gold + biocide (first of 3 gold concentrations, biocide concentration 3 of 4): 1.05
CDI (coefficient of drug interaction), gold + biocide (first of 3 gold concentrations, biocide concentration 4 of 4): 1.06
CDI (coefficient of drug interaction), gold + biocide (second of 3 gold concentrations, biocide concentration 1 of 4): 1.03
CDI (coefficient of drug interaction), gold + biocide (second of 3 gold concentrations, biocide concentration 2 of 4): 1.02
CDI (coefficient of drug interaction), gold + biocide (second of 3 gold concentrations, biocide concentration 3 of 4): 1.14
CDI (coefficient of drug interaction), gold + biocide (second of 3 gold concentrations, biocide concentration 4 of 4): 1.07
CDI (coefficient of drug interaction), gold + biocide (third of 3 gold concentrations, biocide concentration 1 of 4): 1.08
CDI (coefficient of drug interaction), gold + biocide (third of 3 gold concentrations, biocide concentration 2 of 4): 1.05
CDI (coefficient of drug interaction), gold + biocide (third of 3 gold concentrations, biocide concentration 3 of 4): 1.13
CDI (coefficient of drug interaction), gold + biocide (third of 3 gold concentrations, biocide concentration 4 of 4): 1.09
CDI [19]: 0.78
CDI [20]: 0.79
CDI [21]: 0.75
CDI [22]: 0.69
CDI [23]: 0.87
CDI [24]: 0.89
CDI [25]: 0.83
CDI [26]: 0.34
CDI [27]: 0.68
CDI [28]: 0.34
CDI [29]: 0.38
CDI [30]: 0.19

Nc1n[nH]c(N)n1 [guanazole]
CDI (coefficient of drug interaction), copper mixed with biocide [1]: Tox
CDI (coefficient of drug interaction), copper mixed with biocide [2]: Tox
CDI (coefficient of drug interaction), copper mixed with biocide [3]: Tox
CDI (coefficient of drug interaction), copper mixed with biocide [4]: Tox
CDI (coefficient of drug interaction), copper mixed with biocide [5]: Tox
CDI (coefficient of drug interaction), copper mixed with biocide [6]: Tox
CDI (coefficient of drug interaction) [9]: Tox
CDI (coefficient of drug interaction) [10]: Tox
CDI (coefficient of drug interaction) [13]: Tox
CDI (coefficient of drug interaction) [14]: Tox
CDI (coefficient of drug interaction) [17]: Tox
CDI (coefficient of drug interaction) [18]: Tox
CDI [21]: Tox
CDI [22]: Tox
CDI [25]: Tox
CDI [26]: Tox
CDI [29]: Tox
CDI [30]: Tox

O=S(=O)(F)Cc1ccccc1 [PMSF]
CDI (coefficient of drug interaction) [31]: 0.76
CDI (coefficient of drug interaction) [32]: 0.71
CDI (coefficient of drug interaction) [33]: 0.62
CDI (coefficient of drug interaction) [34]: 0.71
CDI (coefficient of drug interaction) [35]: 0.59
CDI (coefficient of drug interaction) [36]: 0.58
CDI (coefficient of drug interaction) [37]: 0.37
CDI (coefficient of drug interaction) [38]: 0.46
CDI (coefficient of drug interaction) [39]: 0.41
CDI (coefficient of drug interaction) [40]: 0.42
CDI (coefficient of drug interaction) [41]: 0.34
CDI (coefficient of drug interaction) [42]: 0.38
CDI (coefficient of drug interaction) [7]: 1.07
CDI (coefficient of drug interaction) [8]: 0.96
CDI (coefficient of drug interaction) [9]: 0.93
CDI (coefficient of drug interaction) [10]: 0.74
CDI (coefficient of drug interaction) [11]: 1.03
CDI (coefficient of drug interaction) [12]: 1.05
CDI (coefficient of drug interaction) [13]: 1.11
CDI (coefficient of drug interaction) [14]: 0.85
CDI (coefficient of drug interaction) [15]: 1.07
CDI (coefficient of drug interaction) [16]: 1.16
CDI (coefficient of drug interaction) [17]: 1.21
CDI (coefficient of drug interaction) [18]: 2.21
CDI [19]: 0.91
CDI [20]: 0.92
CDI [21]: 1.10
CDI [22]: 0.35
CDI [23]: 1.03
CDI [24]: 1.10
CDI [25]: 1.06
CDI [26]: 0.55
CDI [29]: 1.25
CDI [30]: 0.60
